According to patent publication US20230263822A1, “MODULATION OF FACTOR 11 EXPRESSION” (Ionis Pharmaceuticals, Inc., priority 2008, published 2023):

Key:
[1] = tested on: human Factor 11 mRNA; assay: Antisense inhibition of human Factor 11 in HepG2 cells by microwalk gapmers, lipofectin, 75 nM (Example 3); format: cell-based
In short: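 HepG2 cells (10,000/well) were transfected via lipofectin with 75 nM 20-mer MOE gapmers (phosphorothioate, 5-methyl-C) for about 24 h. Factor 11 mRNA was measured by qRT-PCR, normalized to RIBOGREEN total RNA, and given as percent inhibition versus untreated cells.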

[2] = tested on: human Factor 11 mRNA; assay: Dose-dependent inhibition of human Factor 11 in HepG2 cells, lipofectin 9.375-75 nM (Example 4); format: cell-based; settings: for percent inhibition of Factor 11 at 9.375 nM / percent inhibition of Factor 11 at 18.75 nM / percent inhibition of Factor 11 at 37.5 nM / percent inhibition of Factor 11 at 75 nM: relative to untreated control cells
In short: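 HepG2 cells transfected via lipofectin with antisense oligonucleotide at 9.375, 18.75, 37.5 or 75 nM for about 16 h. Factor 11 mRNA quantified by real-time RT-PCR (primer probe set RTS 2966) and normalized to total RNA (RIBOGREEN). Results expressed as percent inhibition versus untreated cells.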

[3] = tested on: human Factor 11 mRNA; assay: Dose-dependent inhibition of human Factor 11 in HepG2 cells, electroporation 0.7-20 uM (Example 4); format: cell-based; settings: for percent inhibition of Factor 11 at 0.7 μM / percent inhibition of Factor 11 at 2.2 μM / percent inhibition of Factor 11 at 6.7 μM / percent inhibition of Factor 11 at 20 μM: relative to untreated control cells
In short: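 HepG2 cells electroporated with antisense gapmers at 0.7, 2.2, 6.7 and 20 μM, treated ~16 h. Factor 11 mRNA quantified by qRT-PCR (primer probe set RTS 2966), normalised to RIBOGREEN total RNA; expressed as percent inhibition versus untreated control cells.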

[4] = tested on: human Factor 11 mRNA; assay: Antisense inhibition of human Factor 11 in HepG2 cells, electroporation, 8,000 nM (Example 30); format: cell-based; settings: electroporation, 8,000 nM antisense oligonucleotide
In short: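 HepG2 cells electroporated with 8,000 nM 5-10-5, 5-8-5 or 6-8-6 MOE gapmers (phosphorothioate, 5-methylcytidine), ~24 h. Factor 11 mRNA quantified by qRT-PCR, normalised to RIBOGREEN total RNA. Reported as percent inhibition versus untreated cells.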

[5] = Tolerability in Sprague-Dawley rats: kidney function, urine protein/creatinine (Example 35); settings: Sprague Dawley rats
Method: A control group of four Sprague Dawley rats was injected subcutaneously with PBS twice per week for 6 weeks. Body weight measurements were taken before and throughout the treatment period. Urine samples were taken before the start of treatment. Three days after the last dose, urine samples were taken and the rats were sacrificed. Organ weights were measured and blood was collected for further analysis.
To evaluate the effect of kidney function, plasma concentrations of blood urea nitrogen (BUN) and creatinine were measured using an automated clinical chemistry analyzer (Hitachi Olympus AU400e, Melville, N.Y.).

[6] = HepG2 cells, lipofectin, gapmers targeted to nucleobases 1275 to 1318 of SEQ ID NO: 1
[7] = After treatment, 50 mg/kg s.c. twice per week for 6 weeks
[8] = Before antisense oligonucleotide treatment

With “416864 (antisense GGCAGCGGACGGCATTGGTG; 5-10-5 gapmer, further chemistry not given here) [compound 416864]” the “% inhibition” value [1, 6] was 93%, the IC50 [2] was 26 nM and the “percent inhibition of Factor 11 at 9.375 nM” value [2] was 18%. The “percent inhibition of Factor 11 at 18.75 nM” value [2] was 43%, the “percent inhibition of Factor 11 at 37.5 nM” value [2] was 62% and the “percent inhibition of Factor 11 at 75 nM” value [2] was 78%. For the same substance, the IC50 [3] was 1400 nM, the “percent inhibition of Factor 11 at 0.7 μM” value [3] was 32% and the “percent inhibition of Factor 11 at 2.2 μM” value [3] was 65%. The “percent inhibition of Factor 11 at 6.7 μM” value [3] was 78%, the “percent inhibition of Factor 11 at 20 μM” value [3] was 90% and the “Percent inhibition of human Factor 11 mRNA levels” value [4] was 88%. For the same substance, the Urine protein/creatinine ratio [5, 7] was 4.0 and the Urine protein/creatinine ratio [5, 8] was 1.2.

In the case of “416825 (antisense GCCCTTCATGTCTAGGTCCA; 5-10-5 gapmer, further chemistry not given here) [compound 416825]”, the “% inhibition” value ([1]; HepG2, lipofectin, ~24 h, gapmers targeted to nucleobases 656 to 704 of SEQ ID NO: 1) is reported as 92%, the IC50 [2] is reported as 20 nM and the “percent inhibition of Factor 11 at 9.375 nM” value [2] is reported as 23%. The “percent inhibition of Factor 11 at 18.75 nM” value [2] was 52%, the “percent inhibition of Factor 11 at 37.5 nM” value [2] was 73% and the “percent inhibition of Factor 11 at 75 nM” value [2] was 92%. For the same substance, the IC50 [3] was 1300 nM, the “percent inhibition of Factor 11 at 0.7 μM” value [3] was 27% and the “percent inhibition of Factor 11 at 2.2 μM” value [3] was 74%. The “percent inhibition of Factor 11 at 6.7 μM” value [3] was 92%, the “percent inhibition of Factor 11 at 20 μM” value [3] was 98% and the “Percent inhibition of human Factor 11 mRNA levels” value [4] was 90%. The Urine protein/creatinine ratio [5, 7] was 5.4 and the Urine protein/creatinine ratio [5, 8] was 1.1.

In the case of “416850 (antisense TGCACAGTTTCTGGCAGGCC; 5-10-5 gapmer, further chemistry not given here) [compound 416850]”, the “% inhibition” value [1, 6] is reported as 93%, the IC50 [2] is reported as 29 nM and the “percent inhibition of Factor 11 at 9.375 nM” value [2] is reported as 4%. For the same substance, the “percent inhibition of Factor 11 at 18.75 nM” value [2] was 30%, the “percent inhibition of Factor 11 at 37.5 nM” value [2] was 67% and the “percent inhibition of Factor 11 at 75 nM” value [2] was 84%. For the same substance, the IC50 [3] was 3400 nM, the “percent inhibition of Factor 11 at 0.7 μM” value [3] was 14% and the “percent inhibition of Factor 11 at 2.2 μM” value [3] was 25%. For the same substance, the “percent inhibition of Factor 11 at 6.7 μM” value [3] was 81%, the “percent inhibition of Factor 11 at 20 μM” value [3] was 91% and the “Percent inhibition of human Factor 11 mRNA levels” value [4] was 91%. The Urine protein/creatinine ratio [5, 7] was 4.0 and the Urine protein/creatinine ratio [5, 8] was 1.0.

In the case of “416858 (antisense ACGGCATTGGTGCACAGTTT; 5-10-5 gapmer, further chemistry not given here) [compound 416858]”, the “% inhibition” value [1, 6] is reported as 93%, the IC50 [2] is reported as 33 nM and the “percent inhibition of Factor 11 at 9.375 nM” value [2] is reported as 0%. For the same substance, the “percent inhibition of Factor 11 at 18.75 nM” value [2] was 28%, the “percent inhibition of Factor 11 at 37.5 nM” value [2] was 54% and the “percent inhibition of Factor 11 at 75 nM” value [2] was 82%. For the same substance, the IC50 [3] was 5300 nM, the “percent inhibition of Factor 11 at 0.7 μM” value [3] was 5% and the “percent inhibition of Factor 11 at 2.2 μM” value [3] was 20%. For the same substance, the “percent inhibition of Factor 11 at 6.7 μM” value [3] was 56%, the “percent inhibition of Factor 11 at 20 μM” value [3] was 86% and the “Percent inhibition of human Factor 11 mRNA levels” value [4] was 90%. For the same substance, the Urine protein/creatinine ratio [5, 7] was 4.4 and the Urine protein/creatinine ratio [5, 8] was 0.9.

For “417002 (antisense GGTGCACAGTTTCTGGCAGG; 2-13-5 gapmer chemistry, further chemistry not given here) [compound 417002]”, the “% inhibition” value [1, 6] was 92%, the IC50 [2] was 19 nM and the “percent inhibition of Factor 11 at 9.375 nM” value [2] was 35%. For the same substance, the “percent inhibition of Factor 11 at 18.75 nM” value [2] was 52%, the “percent inhibition of Factor 11 at 37.5 nM” value [2] was 67% and the “percent inhibition of Factor 11 at 75 nM” value [2] was 70%. For the same substance, the IC50 [3] was 2200 nM, the “percent inhibition of Factor 11 at 0.7 μM” value [3] was 32% and the “percent inhibition of Factor 11 at 2.2 μM” value [3] was 38%. The “percent inhibition of Factor 11 at 6.7 μM” value [3] was 82%, the “percent inhibition of Factor 11 at 20 μM” value [3] was 91% and the Urine protein/creatinine ratio [5, 7] was 2.4. For the same substance, the Urine protein/creatinine ratio [5, 8] was 1.0.
